The nature of this data set: gradient 5% acetonitrile 3 min, to 50% in 2 min, to 85% in 15 min, held 3 min, 100 µL/min. To be noted: column: Zorbax Extend-C18 2.1 x 50 mm; eluents: water / acetonitrile, 0.1% formic acid. The procedure, abridged:
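Standards, all pure, were combined into mixtures of ~100 molecules and run at 100 μL/min on a Zorbax Extend-C18 column (2.1 × 50 mm, 1.8 μm) with water and acetonitrile, each containing 0.1% formic acid. A coupled quadrupole time-of-flight mass spectrometer operated in positive and negative ionization mode. Retention time values come from computationally picked adduct peaks, each inspected manually.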
Compound `CCC1Oc2ccc(S(=O)(=O)N3CCC(C(=O)Nc4ccc(C)c(C)c4)CC3)cc2NC1=O` (stereo not given) had an RP-LC retention time of 930 s.

In the case of `Cc1cc(C)cc(C(=O)NC(Cc2ccccc2)c2nnc(N3CCSCC3)o2)c1` (stereo not given), the RP-LC retention time turned out to be 918 s.

On to `O=C(COc1ccc(F)cc1)Nc1ccc(-c2nc(-c3ccc(F)cc3)no2)cc1`, for which the RP-LC retention time came to 1220 s.

`O=C(CSc1nnnn1-c1ccccc1)Nc1ncc(Cc2ccccc2Cl)s1` returned an RP-LC retention time of 946 s.

Compound `NC(=O)[C@@H]1C[C@H](Oc2cccnc2)CN1C(=O)CC1CCCC1` returned an RP-LC retention time of 584 s.

As to `O=C(c1cnc2n(c1=O)CCS2)N1CCN(c2ccc([N+](=O)[O-])cc2)CC1`, the RP-LC retention time was 635 s.

`CCn1cc(C)c(C(=O)O)c1CC(=O)NCCN1CCc2ccccc2C1` showed an RP-LC retention time of 629 s.

The compound `COCCc1noc(-c2ccc(=O)n(CC(=O)NC3CCCCC3)c2)n1` returned an RP-LC retention time of 684 s.

For the compound `Cc1ccc(NC(=O)NCC(c2cccnc2)c2cn(C)c3ccccc23)cc1C` (stereo not given), the RP-LC retention time was 753 s.

On to `CCc1nc2cc(-c3noc(-c4ccncc4)n3)ccc2o1`, for which the RP-LC retention time stood at 959 s.

In turn, `Cc1nc2ccc3nc(NC(=O)C4CCN(S(C)(=O)=O)CC4)sc3c2s1` had an RP-LC retention time of 709 s.

For the compound `Cc1ccc(CC(=O)Nc2c(C(=O)N3CCN(c4ccccn4)CC3)oc3ccccc23)cc1`, the RP-LC retention time stood at 716 s.

`CC(=O)Nc1nsc(N2CCC(C(=O)NCc3cccs3)CC2)n1` yielded an RP-LC retention time of 610 s.

The compound `CCCNC(=O)c1cn(-c2ncccc2-c2nc(-c3ccccc3)no2)cn1` returned an RP-LC retention time of 823 s.

Regarding `Cc1ccc(N2CCC(NC(=O)c3cc(F)cc(F)c3)C2=O)cc1C` (stereo not given), the RP-LC retention time was 943 s.

In turn, `CCCN(CC1CCOC1)C(=O)c1ccc(F)c(Cl)c1` (stereo not given) displayed an RP-LC retention time of 842 s.

As to `O=C1CCSc2ccc(S(=O)(=O)N3CCC(C(=O)NCc4ccccc4)CC3)cc2N1`, the RP-LC retention time was found to be 761 s.

Compound `CC(=O)c1ccc(NC(=O)Cn2cnc3nc4c(cc3c2=O)CCCC4)cc1` had an RP-LC retention time of 671 s.

The compound `CC1CCN(S(=O)(=O)c2cc(-c3nnc(C4CCCC4)o3)co2)CC1` had an RP-LC retention time of 1080 s.

With `COc1ccc(CCNCc2ccc3c(c2)n(C)c(=O)n3C)cc1OC`, the RP-LC retention time stood at 587 s.

The compound `O=C(Cn1nc2c3sc(N4CCCCC4)nc3ncn2c1=O)Nc1cccc(Br)c1` displayed an RP-LC retention time of 855 s.

Compound `CCC(=O)N1CCc2cc(N3CC(C(=O)Nc4cc(C)ccc4C)CC3=O)ccc21` (stereo not given) registered an RP-LC retention time of 790 s.

With `CCOC(=O)C1CCCN(Cc2nc3nc(C)cc(N4CCC(C)CC4)n3n2)C1` (stereo not given), the RP-LC retention time is 652 s.

On to `COc1cccc(C(O)CN2CCN(c3ccccc3F)CC2)c1` (stereo not given), for which the RP-LC retention time was 654 s.

The compound `Cc1cc(Cl)ccc1NC(=O)Cc1nnc(-c2ccc3ncccc3c2)o1` came in with an RP-LC retention time of 766 s.

As to `COCCN(Cc1ccc(C(C)C)cc1)Cc1cc(=O)n2cc(Cl)ccc2n1`, the RP-LC retention time was 628 s.

`CN1C(=O)c2cc(C(=O)N3CCOCC3)nn2CC1(C)C(=O)NCc1ccc(F)cc1` (stereo not given) registered an RP-LC retention time of 644 s.

Turning to `CN(C(=O)Cn1nc(Cc2ccncc2)c2ccccc2c1=O)c1ccccc1Cl`, the RP-LC retention time worked out at 627 s.

`CCOc1ncccc1CNC(=O)NCc1cccc(OC)c1`: the RP-LC retention time was 570 s.

As to `CCOc1ccccc1N1CCN(S(=O)(=O)c2nn(C)cc2C(=O)NCC2CC2)CC1`, the RP-LC retention time worked out at 973 s.

`CCc1nc(-c2cc(S(=O)(=O)NCC(=O)NC3CC3)c(C)s2)no1` had an RP-LC retention time of 740 s.

Compound `CS(=O)(=O)N1CC(C(=O)Nc2ccc3c(c2)OCCO3)C2(CCCCC2)C1` (stereo not given) displayed an RP-LC retention time of 847 s.

As to `CC(=O)N1c2ccc(S(=O)(=O)N3CCCCCC3)cc2CC1C(=O)NCCc1ccccc1` (stereo not given), the RP-LC retention time came to 918 s.

Consider `COc1ccc(C2Cn3cnc(C(=O)N4CCC(C(=O)NC5CCCCC5)CC4)c3CO2)cc1` (stereo not given), for which the RP-LC retention time was determined as 697 s.

Turning to `CCOC(=O)c1noc2nc(C)nc(Nc3ccc(F)cc3)c12`, the RP-LC retention time came out at 962 s.

With `CCN(CC)CCCC(C)NC(=O)c1ccc2c(c1)C(=O)c1ccccc1C2=O` (stereo not given), the RP-LC retention time turned out to be 671 s.

The compound `CCOc1ccc(C(=O)NC2CCN(c3cc(-c4ccc(OC)cc4)[nH]n3)C2)cc1` (stereo not given) displayed an RP-LC retention time of 725 s.

The compound `c1ccc(CCc2nc3nccc(-c4cccnc4)n3n2)cc1` registered an RP-LC retention time of 726 s.

Compound `O=C(c1ccoc1)N1[C@H]2CC[C@@H]1c1cnc(-c3ccccc3)nc1C2` yielded an RP-LC retention time of 837 s.

`Cn1c(=O)n(CC(=O)N2CCCCC2)c(=O)c2cnc(-c3ccccc3)nc21` showed an RP-LC retention time of 918 s.

As to `COc1cccc(-n2cc(C(=O)OCc3cc(=O)n4ccccc4n3)c3ccccc3c2=O)c1`, the RP-LC retention time stood at 866 s.

Compound `Cc1ccsc1C(=O)NCCc1cn(CC(C)C)c2ncccc12` registered an RP-LC retention time of 844 s.

As to `Cn1nccc1C(=O)N1CCC(c2cc(-c3ccc(F)cc3)n[nH]2)CC1`, the RP-LC retention time was 712 s.

`O=C(NCc1ccccn1)C1CCN(c2cc(Oc3ccccc3)ncn2)CC1` yielded an RP-LC retention time of 577 s.

Compound `COc1cccc(Oc2nccnc2N2CCC(C(=O)NCCC3=CCCCC3)CC2)c1` yielded an RP-LC retention time of 1050 s.

In turn, `O=C(Nc1cc(F)c(F)c(F)c1)N1CCc2nc[nH]c2C1` displayed an RP-LC retention time of 614 s.

For `Cc1cc2n(n1)CCC(=O)N2CCCC(=O)NCCc1ccccc1`, the RP-LC retention time amounted to 666 s.

`CCCCC(=O)N1CCc2c(c(C(=O)N3CCCC(C(=O)Nc4ccccc4C)C3)nn2C)C1` (stereo not given) displayed an RP-LC retention time of 797 s.

Consider `CCCC(=O)N1CCCC1COc1ccc(C(=O)N2CCCC2)cc1` (stereo not given), for which the RP-LC retention time is 600 s.

`Cc1cccc(NS(=O)(=O)c2c(C)sc(C)c2-c2n[nH]c(C)c2C)c1`: the RP-LC retention time worked out at 1040 s.

`COCC(=O)N1CCc2c([nH]c3ccccc23)C1c1ccc(SC)cc1` (stereo not given) showed an RP-LC retention time of 998 s.

Take `Cc1cccc(Cl)c1S(=O)(=O)Nc1ccc2c(c1)CCC(=O)N2C`: the RP-LC retention time amounted to 788 s.

Take `COc1cccc(C2Cn3nnc(-c4nc(-c5ccccc5F)no4)c3CO2)c1` (stereo not given): the RP-LC retention time turned out to be 1100 s.

Regarding `Cc1nc(-c2cc(S(=O)(=O)Nc3ccc(Br)cc3F)c(C)s2)cs1`, the RP-LC retention time was 1070 s.

Compound `COc1cccc2c1OC1(CCN(C(C)=O)CC1)N1N=C(c3cccs3)CC21` (stereo not given) showed an RP-LC retention time of 835 s.

In turn, `CSc1ccc(NC(=O)N2CCN(c3cnn4c(C5CC5)nnc4c3)CC2)cc1` displayed an RP-LC retention time of 668 s.

As for `O=C(Nc1ccc(Cl)cc1F)c1cc(C2CC2)on1`, the RP-LC retention time worked out at 1090 s.

Regarding `Cc1ccc(S(=O)(=O)N2CCC(CC(=O)NC(C)c3ccccc3)CC2)cc1` (stereo not given), the RP-LC retention time was 917 s.

Compound `CCc1noc(-c2ccnc(-n3cnc(C(=O)NC4CCCCCC4)c3)c2)n1` displayed an RP-LC retention time of 640 s.

The compound `CCc1nn2c(CNC(=O)c3cc(C)cc(C)c3)c(-c3ccccc3)nc2s1` yielded an RP-LC retention time of 1030 s.

For `CC(C)CN1Cc2ccccc2-n2ccnc2C12CCN(C(=O)C1CC1)CC2`, the RP-LC retention time is 648 s.

`O=C(NCc1ccc(F)c(Cl)c1)c1nnn(-c2ccccc2)c1-c1ccccn1`: the RP-LC retention time was determined as 872 s.

Compound `Cc1ccc(N2CCC(NC(=O)Cc3cccs3)C2=O)cc1` (stereo not given) displayed an RP-LC retention time of 827 s.

Turning to `CCN1CCN(C(=O)C2CCc3sc(C(=O)N4CCCCC4)cc3C2)CC1` (stereo not given), the RP-LC retention time came out at 613 s.

In turn, `CC(=O)NCCc1csc(C2CCN(C(=O)C3CCCC3)CC2)n1` gave an RP-LC retention time of 676 s.

In the case of `CC1(c2cccc3ccccc23)OC(=O)c2ccccc21` (stereo not given), the RP-LC retention time worked out at 1030 s.

Turning to `COC(=O)c1cnc2nc(C)ccc2c1Nc1ccc(OC)c(OC)c1`, the RP-LC retention time is 630 s.

`COC(=O)COc1cc(O)c2c(=O)cc(-c3ccccc3)oc2c1` had an RP-LC retention time of 990 s.

For `Cc1cccc(NC(=O)CSc2cc(N3CCCC(C)C3)ncn2)c1` (stereo not given), the RP-LC retention time was 1020 s.

Compound `CCS(=O)(=O)c1nc2ccc(NS(=O)(=O)c3ccc4c(c3)OCCO4)cc2s1` gave an RP-LC retention time of 826 s.

With `CCCN(Cc1ccc(OC)c(OC)c1)Cc1cc(=O)n2cc(C)ccc2n1`, the RP-LC retention time came to 611 s.

`CCCN1C(=O)c2c(C(=O)NCc3ccccc3F)ncn2CC1(C)C(=O)NC1CCCC1` (stereo not given) yielded an RP-LC retention time of 787 s.

On to `CCCc1cc(N2CCN(c3ccccn3)CC2)n2nc3nc(C)cc(C)c3c2n1`, for which the RP-LC retention time was 615 s.

Compound `O=C(c1ccccc1)c1ccccc1C(=O)c1ccccc1` displayed an RP-LC retention time of 1090 s.

On to `Cc1cccc(CNC(=O)C2CCCN(c3ccc(=O)n(-c4ccc(C)c(Cl)c4)n3)C2)c1` (stereo not given), for which the RP-LC retention time was determined as 984 s.

`CCSCCOC(=O)C1=C(C)NC2=C(C(=O)CCC2)C1c1cccc(OC)c1OC` (stereo not given) returned an RP-LC retention time of 861 s.

Turning to `COCCn1c(SCc2nc(-c3ccc(C)cc3)no2)nc2cc3c(cc2c1=O)OCO3`, the RP-LC retention time was 1100 s.

The compound `O=C(Nc1ccc([N+](=O)[O-])cc1O)Nc1ccccc1Br` returned an RP-LC retention time of 914 s.

Compound `CCn1c(=O)c2ccccc2n(Cc2nc(-c3ccc(Cl)c(F)c3)no2)c1=O` showed an RP-LC retention time of 1140 s.

For the compound `CCC(=O)NCc1nc2c(n1C)CN(S(=O)(=O)c1cccc(Cl)c1)CC2`, the RP-LC retention time was determined as 570 s.

The values above are taken from the METLIN SMRT retention time set (Domingo-Almenara et al. 2019).
